Assay: Solubility of monomers and BTT in 1:1 mixes of acetonitrile and a solvent
Format: physicochemical
Procedure: The BTT (MW 192.2., water content ≦75 ppm) was supplied by emp Biotech GmbH (catalog no. NC-0101-1K, charge/lot no. 050904). The dT (MW 744.83), dG^ibu (MW 839.92), dA^bz (MW 857.93), dC^bz (MW 833.93) monomers were supplied by Proligo. The acetonitrile (MeCN) has a viscosity of 0.345 cP at 25° C. and a dipole moment of 3.92 D.
74.5 mg (100 μmol) of dT monomer was weighed out into each of 7 screw-topped 10 ml vials. 84 mg (100 μmol) of dG^ibu monomer was weighed out into each of 7 screw-topped 10 ml vials. 86 mg (100 μmol) of dA^bz monomer was weighed out into each of 7 screw-topped 10 ml vials. 83 mg (100 μmol) of dC^bz monomer was weighed out into each of 7 screw-topped 10 ml vials. 228 mg (1.2 mmol) of BTT was weighed out into each of 7 screw-topped 10 ml vials.
Six different solvent mixes were prepared by mixing 10 ml of dry acetonitrile with 10 ml of one of the 6 different solvents listed above in separate dry bottles under argon.
To each separate vial of T monomer was added 1 ml of one of the 6 different solvent mixes or pure acetonitrile. The vials were quickly closed and agitated gently. This was repeated with the vials of dG, dA and dC monomers.
To each separate vial of BTT was added 4 ml of one of the 6 solvent mixes.

dissolution of BTT (0.3 M, solvent mixes, all cases except HFIP/MeCN): practically instantaneous
solubility of BTT (at 0.3 M in all 5 mixes (acetonitrile 1:1 with NMP, DMA, TMU, DMSO, sulfolane)): soluble
dissolution of BTT (pure acetonitrile, compared with the solvent mixes, gentle warming required for rapid dissolution): not as fast
Structure (SMILES): c1ccc(CSc2nnn[nH]2)cc1 [BTT, 5-benzylthiotetrazole]

— patent US20080139797A1, “OLIGONUCLEOTIDES CONTAINING HIGH CONCENTRATIONS OF GUANINE MONOMERS” (INTEGRATED DNA TECHNOLOGIES, INC., priority 2006, published 2008)
